Results taken from paper PMC8943092, “Broad thermal spectrum metagenomic laccase with action for dye decolorization and fentin hydroxide treatment” (AMB Express, 2022).

Tested on: LacMeta
Settings: pH 4.0, 20 mM sodium citrate, 37 °C; copper-loaded enzyme 0.066 µM; ABTS 0.1-10 mM

CCn1c(=NN=c2sc3cc(S(=O)(=O)O)ccc3n2CC)sc2cc(S(=O)(=O)O)ccc21 [ABTS, 2,2′-azino-bis (3-ethylbenzothiazoline-6-sulfonic acid)]
Km: 4.22 ± 0.374 mM
